The inhibition is the drop in the measured response relative to a control, in per cent.

The values that follow come from patent publication US8906925B2, “Pyrido[4,3-B]indoles containing rigid moieties” (Medivation Technologies, Inc., priority 2008, dated 2014).

One test concerns Long-Evans rats. The experiment in a line: 5-choice serial reaction time task (5CSRTT). It is filed as in vivo, rat. The settings on record: 0.1, 0.3 and 1.0 mg/kg p.o. The source says: Attention and impulsivity are characteristic of several disease states. The continuous performance test (CPT), used in humans, is capable of detecting attention deficts in a number of disorders, including attention deficit hyperactivity disorder, schizophrenia and mild cognitive impairment. The pre-clinical analogue of the CPT is the 5-choice serial reaction time task (5CSRTT). In this operant-based test, rats are required to be attentive and withhold responding while they monitor 5 apertures for the appearance of a brief stimulus light in one of the apertures. The brief illumination of the stimulus light in the 5CSRTT is analogous to the appearance of the “correct” letters in the CPT in humans. Upon observing the stimulus light, the rat must nose-poke in the corresponding aperture to receive a food reward. The 5CSRTT allows the measurement of similar behavioral responses as the CPT, including accuracy, speed of responding, impulsive and compulsive responding.
Thirteen male Long-Evans rats (275-300 g) were obtained from Harlan Laboratories, Indianapolis, Ind. At the time of testing for the current study, the rats were approximately 16-18 months old. Upon arrival, the rats were assigned unique identification numbers (tail marked). […]

Test [1] deals with human dopamine D2L receptor (Homo sapiens, UniProt P14416). As to the kind of experiment: Dopamine D2L [35S]GTPγS functional assay (SPA, CHO membranes). It is filed as biochemical. As to conditions: read-out: D2L GTPgS % Inhibition. As to the method: To determine for agonist or antagonist activity of compounds of the invention in functional assays, human recombinant dopamine D2L receptor stably expressed in Chinese hamster ovary (CHO) cells (Senogles S E et al. J Biol Chem. 265(8): 4507, 1990) was used. Compounds of invention were pre-incubated with the membranes (0.1 mg/mL) and 10 mM GDP in modified HEPES buffer (20 mM HEPES, pH 7.4, 100 mM NaCl, 10 mM MgCl2, 1 mM DTT, 1 mM EDTA) for 20 min. and Scintillation Proximity Assay (SPA) beads were added for another 60 min. at 30° C. The reaction was initiated by 0.3 nM [^35S]GTPγS for an additional 15 min. incubation period. […] Compounds were screened at […] or lower, using 0.4% DMSO as vehicle. Assay results are presented as the percent response of specific binding in Table 12.
human dopamine D2L receptor, sequence (P14416 whole entry): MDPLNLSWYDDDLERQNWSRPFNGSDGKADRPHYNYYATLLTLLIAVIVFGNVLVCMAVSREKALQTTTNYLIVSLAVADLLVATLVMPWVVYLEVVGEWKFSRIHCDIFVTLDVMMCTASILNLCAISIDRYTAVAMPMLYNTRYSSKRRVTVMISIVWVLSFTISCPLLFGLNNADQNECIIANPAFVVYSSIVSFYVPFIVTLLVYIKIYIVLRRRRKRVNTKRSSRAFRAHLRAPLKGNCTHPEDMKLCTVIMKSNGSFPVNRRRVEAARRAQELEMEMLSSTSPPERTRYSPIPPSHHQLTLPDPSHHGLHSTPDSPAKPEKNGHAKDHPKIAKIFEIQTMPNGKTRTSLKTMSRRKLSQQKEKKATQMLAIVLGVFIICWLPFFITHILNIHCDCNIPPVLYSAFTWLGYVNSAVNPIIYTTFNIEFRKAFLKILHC
In general terms: GTPγS resists hydrolysis and so accumulates on activated G proteins.

The target in another test is histamine receptor H1 (Homo sapiens, UniProt P35367). As to the kind of experiment: Inhibition of binding of a ligand (Pyrilamine) to histamine receptor H1. As to conditions: as compared to the unsubstituted vinyl counterpart (106 vs compound 415; 85 vs compound 95). As to the method: The number and extent of undesirable side effects increases with increasing affinity for the H1 receptor Thus, in one aspect, compounds of the formulae herein display reduced, low or no affinity to histamine receptor H1. […] Inhibition of binding of a ligand to H1 for all variations detailed herein is determined by a suitable assay known in the art such as the assay described herein. […] In one variation, compounds of the formulae herein inhibit binding of a ligand to H1 by between about 50% to about 80%. […] In one variation, compounds of the formulae herein inhibit binding of Pyrilamine to H1 as determined in the assay described herein. In a further variation, percent inhibition of binding to H1 is measured by assays detailed herein.
histamine receptor H1, sequence (P35367 whole entry): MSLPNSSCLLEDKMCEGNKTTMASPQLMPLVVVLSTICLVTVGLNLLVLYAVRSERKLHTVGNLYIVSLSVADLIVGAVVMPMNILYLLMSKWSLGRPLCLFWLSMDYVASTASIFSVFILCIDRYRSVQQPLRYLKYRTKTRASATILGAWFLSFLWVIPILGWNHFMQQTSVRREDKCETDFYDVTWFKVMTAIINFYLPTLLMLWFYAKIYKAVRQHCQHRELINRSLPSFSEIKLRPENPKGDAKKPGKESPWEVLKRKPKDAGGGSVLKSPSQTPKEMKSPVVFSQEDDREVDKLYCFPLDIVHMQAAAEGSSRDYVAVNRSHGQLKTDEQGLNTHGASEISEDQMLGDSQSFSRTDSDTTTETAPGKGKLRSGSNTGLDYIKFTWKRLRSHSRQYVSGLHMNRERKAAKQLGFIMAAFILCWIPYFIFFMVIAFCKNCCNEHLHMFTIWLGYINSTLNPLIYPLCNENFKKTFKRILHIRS
The binding properties of compounds disclosed herein to a panel of aminergic G protein-coupled receptors including adrenergic receptors, dopamine receptors, serotonin receptors, histamine receptors and an imidazoline receptor may be determined. Binding properties may be assessed by methods known in the art, such as competitive binding assays. In one variation, compounds are assessed by the binding assays detailed herein. […]
In one aspect, DDT compounds display low affinity to histamine receptor H1. […] Inhibition of binding of a ligand to H1 for all variations detailed herein is determined by a suitable assay known in the art such as the assay described herein. […]

For the molecule `C/C(=C\n1c2c(c3cc(Cl)ccc31)CN(C)CC2)c1ccncc1` [Compound 90, (E)-8-chloro-2,3,4,5-tetrahydro-2-methyl-5-(2-(pyridin-4-yl)prop-1-enyl)-1H-pyrido[4,3-b]indole], in the test with Long-Evans rats, the “impulsivity-like and perserverative-like behavior” value is listed as “reduces”.
In the case of `C/C(=C\n1c2c(c3cc(Cl)ccc31)CN(C)CC2)c1ccc(F)cc1` [Compound 83, (E)-8-chloro-5-(2-(4-fluorophenyl)prop-1-enyl)-2,3,4,5-tetrahydro-2-methyl-1H-pyrido[4,3-b]indole], the inhibition at 0.001 µM in test [1] (conc. 1 nM) turned out to be 16%. In addition, the inhibition at 0.003 µM in test [1] (conc. 3 nM) came to 28%. In test [1] (conc. 10 nM), the inhibition at 0.01 µM is 49%. In test [1] (conc. 30 nM), the inhibition at 0.03 µM turned out to be 55%. The inhibition at 0.1 µM in test [1] (conc. 100 nM) was determined as 77%.
With `C/C(=C\n1c2c(c3cc(Cl)ccc31)CN(C)CC2)c1ccccc1` [compound 106, (E)-8-chloro-2,3,4,5-tetrahydro-2-methyl-5-(2-phenylprop-1-enyl)-1H-pyrido[4,3-b]indole], the “binding affinity to H1” value at histamine receptor H1 is on record as “lower binding affinity to H1”.
